Data published in patent publication US7985567B2, “Host cells and methods for producing 3-methyl-2-buten-1-ol, 3-methyl-3-buten-1-ol, and 3-methyl-butan-1-ol” (The Regents of the University of California, priority 2007, dated 2011).

Tested on: S. cerevisiae BY4741 cells
Assay: In vivo reduction of 3-methyl-2-butenol or 3-methyl-3-butenol to 3-methyl-butanol by yeast
Format: cell-based, Saccharomyces cerevisiae
Conditions: 1 g/l substrate added after 48 hours, grown an additional 2 days; versus no substrate or 3-methyl-3-butenol; FIG. 3
Experimental: To test the capability of yeast to catalyze the conversion of 3-methyl-2-butenol to isopentanol, 5 ml. of YPD medium with 2% glycerol, in a 100 ml culture tube, was inoculated with an overnight culture of freshly plated S. cerevisiae BY4741 cells to achieve a final absorbance of 0.5 at 600 nm (A600). The cultures were grown at 30° C. at 200 r.p.m. After 48 hours, either 3-methyl-2-butenol or 3-methyl-3-butenol (1 g/l) was added to the culture.
Cultures were sampled after addition of 3-methyl-2-butenol or 3-methyl-3-butenol and grown for an additional 2 days. The samples were collected by pelleting 1 ml of culture, and adding 150 μl of the supernatant to 750 μl of the extraction solvent (80:20 chloroform:methanol spiked with 50 mg l^−1 of butanol internal standard). The samples were vortexed for 15 minutes and centrifuged for 2 minutes at 5000 r.c.f. 450 μl of the organic layer was removed from each sample and transferred to a clean GC vial for analysis. The GC-MS data were collected in full-scan mode (m/z 50-300) using a Tr-Wax column (0.25 mm×30 m, 0.25 μm film thickness; Thermo Electron) on a PolarisQ GC-MS with TriPlusautosampler (Thermo Electron). The carrier flow was 1.2 ml min^−1, and the inlet temperature was set to 200° C. The oven program was as follows: 40° C. […] Samples were normalized using the butanol internal standard and quantified using authentic standards.

## CC(C)=CCO [3-methyl-2-butenol, 3-methyl-2-buten-1-ol]
  isopentanol production by yeast grown in the presence of the alcohol substrate: significantly more isopentanol
